pIC50: −log10 of the molar value.
Legend:
[1] = tested on: wild-type vaccinia strain Western Reserve; format: cell-based
[2] = tested on: vaccinia virus; format: cell-based
[3] = tested on: EV, IV and LV reporter viruses; format: cell-based
[4] = tested on: monkeypox Zaire 1979 (MPDX); format: cell-based
[5] = tested on: LREV virus (late red early Venus reporter vaccinia virus); format: cell-based
[6] = tested on: A549 and HeLa cells
[7] = tested on: LV virus / LR virus in A549 cells; format: cell-based, vaccinia strain Western Reserve
[8] = tested on: EV, IV and LV reporter mRNA; format: cell-based, vaccinia strain Western Reserve
[9] = tested on: LV virus late reporter expression; format: cell-based, vaccinia strain Western Reserve
[10] = tested on: TrpV reporter virus; format: cell-based
[11] = tested on: late Venus; LV virus (Venus under control of the late F17R promoter); format: cell-based, vaccinia strain Western Reserve
[12] = tested on: viral DNA replication (LV virus); format: cell-based
[13] = tested on: cowpox Brighton red (CPX); format: cell-based
[14] = tested on: HIV/Lai; assay: microbe, parasite or virus in culture; format: cell-based; conditions: Human immunodeficiency virus 1, TZM-bl, read-out: IC50, inhibition of HIV
[15] = tested on: vaccinia virus strain IHDJ; format: cell-based
[16] = tested on: cellular and viral protein synthesis

With Nc1ccn([C@@H]2O[C@H](CO)[C@@H](O)[C@@H]2O)c(=O)n1 [AraC] the “virus yield reduction, single-cycle” value [1] was 3.5 log.

For CC(=O)C1=C2C=C(C)CCN2C(=O)NC1c1ccccc1 (centres unmarked) [Compound 3b, 4-acetyl-6-methyl-3-phenyl-2,3,7,8-tetrahydro-1H-pyrido[1,2-c]pyrimidin-1-one], the “antiviral activity compared with CMLDBU6128” value [2] was “demonstrated antiviral activity but were significantly less active than CMLDBU6 128”.

For O=C(NN1C(=O)[C@@H]2[C@@H]3C=C[C@@H]([C@H]4C[C@@H]34)[C@@H]2C1=O)c1ccc(C(F)(F)F)cc1 [ST-246], the “virus yield reduction, single-cycle” value [1] was 0.3 log.

Work on COC(=O)C1=C2C=C([Si](C)(C)C)CCN2C(=O)NC1c1ccccc1 (centres unmarked) [Compound 4c, methyl 1-oxo-3-phenyl-6-(trimethylsilyl)-2,3,7,8-tetrahydro-1Hpyrido[1,2-c]pyrimidine-4-carboxylate] yielded a melting point of 169 to 172 °C.

For CC(=O)C1=C2C=CCCN2C(=O)N[C@H]1c1ccccc1 [CMLDBU6128, 4-acetyl-2,3,7,8-tetrahydro-3-phenylpyrido[1,2-f]pyrimidin-1-one], the “EV (early) reporter expression” value [3] was “unaffected”, the “IV (intermediate) reporter expression” value [3] was “only reached half-maximal levels” and the “reduction of maximum LV (late) reporter fluorescence” value [3] was “approximately 85%”. For the same compound, the viral yield reduction [4] was 2.5 log, the “antiviral activity of screening hit” value [5] was “strongly antiviral” and the “cytotoxicity of screening hit” value [6] was “not cytotoxic”. The cell cytotoxicity ([6]; 24 h) was “little to no cell cytotoxicity”, the “viral spread after low MOI infection” value [7] was “limits viral spread after low MOI infection” and the “EV reporter mRNA accumulation” value [8] was “unaffected”. For the same compound, the “reduction of peak IV reporter mRNA” value [8] was 41%, the “reduction of peak LV reporter mRNA” value [8] was 73% and the “reporter expression after drug removal” value [9] was “drug removal did not result in a restart of reporter expression”. For the same compound, the “time to flattening of late reporter expression after addition to an unimpeded 10 h infection” value [9] was at most 2 h, the “early Venus expression (TrpV)” value [10] was “no detectable effect” and the “mCherry and late TagBFP expression (TrpV)” value [10] was “reduced mCherry and late TagBFP expression uniformly”. For the same compound, the pIC50 ([11]; read-out: IC50 for LV reporter expression) was about 5.28, the IC90 ([11]; read-out: IC90 for LV reporter expression) was about 10.4 µM and the “Venus DNA copies/c.e.” value [12] was 529 copies/c.e. For the same compound, the “viral DNA replication” value [12] was “occurred normally”, the viral yield reduction [13] was 4.0 log and the “virus yield reduction, single-cycle” value [1] was 3.6 log. For the same compound, the pIC50 [14] was about 4.70, the viral yield reduction [15] was 2.4 log and the “cellular protein synthesis in mock-infected cells” value [16] was “unaffected”. For the same compound, the viral protein synthesis [16] was “globally reduced”.
